Experiments:
Format in all cases: in vivo
[1] = system: johnsongrass (Sorghum halepense, SORHA); experiment: Pre-emerge test, greenhouse herbicide activity screening; details: rated 14 days after application, 0 = no damage, 100 = complete death
How it was run: (§1)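 Sandy loam pots; pre-emerge: sown 1 d pre-spray, surface-watered after, then bottom-watered. Post-emerge: sown 8–21 d before, 2–3 leaf stage, + 0.25% v/v NIS, bottom-watered. Acetone, 187 l/ha track spray, 15–1000 g ai/ha. 0–100 injury score, day 14.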

[2] = system: ivyleaf morningglory (Ipomoea hederacea, IPOHE); experiment: as above; details: rated 14 days after application, 0 = no damage, 100 = complete death
How it was run: as §1

[3] = system: velvetleaf (Abutilon theophrasti, ABUTH); experiment: as above; details: rated 14 days after application, 0 = no damage, 100 = complete death
How it was run: as §1

[4] = system: sicklepod (Cassia obtusifolia, CASOB); experiment: as above; details: rated 14 days after application, 0 = no damage, 100 = complete death
How it was run: as §1

[5] = system: barnyardgrass (Echinochloa crus-galli, ECHCG); experiment: as above; details: rated 14 days after application, 0 = no damage, 100 = complete death
How it was run: as §1

[6] = system: green foxtail (Setaria viridis, SETVI); experiment: as above; details: rated 14 days after application, 0 = no damage, 100 = complete death
How it was run: as §1

[7] = system: large crabgrass (Digitaria sanguinalis, DIGSA); experiment: as above; details: rated 14 days after application, 0 = no damage, 100 = complete death
How it was run: as §1

[8] = system: common ragweed (Ambrosia artemisizfolia L., AMBEL); experiment: as above; details: rated 14 days after application, 0 = no damage, 100 = complete death
How it was run: as §1

[9] = system: lambsquarters (Chenopodium album, CHEAL); experiment: as above; details: rated 14 days after application, 0 = no damage, 100 = complete death
How it was run: as §1

[10] = system: upland rice (Oryza sp., var. Tebonnet, RICE); experiment: Post-emerge test, crop safety; details: post-emerge, 14 days after application, rating scale 0-100
How it was run: as §1

[11] = system: field corn (Zea mays L., var. Dekalb 535, CORN); experiment: Post-emerge test, crop safety; details: post-emerge, 14 days after application, rating scale 0-100
How it was run: as §1

[12] = system: redroot pigweed (Amaranthus retroflexus, AMARE); experiment: Pre-emerge test, greenhouse herbicide activity screening; details: rated 14 days after application, 0 = no damage, 100 = complete death
How it was run: (§2)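 Compounds in acetone were track-sprayed at 15-1000 g ai/ha (187 l/ha) on sandy loam pots: pre-emerge one day after seeding, post-emerge at 2-3 leaf stage with 0.25% v/v non-ionic surfactant. Phytotoxicity was rated 14 days later on a 0 (no damage) to 100 (complete death) scale.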

[13] = system: johnsongrass (Sorghum halepense, SORHA); experiment: Post-emerge test, greenhouse herbicide activity screening; details: post-emerge, 14 days after application, rating scale 0-100
How it was run: as §1

[14] = system: ivyleaf morningglory (Ipomoea hederacea, IPOHE); experiment: as above; details: post-emerge, 14 days after application, rating scale 0-100
How it was run: as §1

[15] = system: velvetleaf (Abutilon theophrasti, ABUTH); experiment: as above; details: post-emerge, 14 days after application, rating scale 0-100
How it was run: as §1

[16] = system: sicklepod (Cassia obtusifolia, CASOB); experiment: as above; details: post-emerge, 14 days after application, rating scale 0-100
How it was run: as §1

[17] = system: barnyardgrass (Echinochloa crus-galli, ECHCG); experiment: as above; details: post-emerge, 14 days after application, rating scale 0-100
How it was run: as §1

[18] = system: large crabgrass (Digitaria sanguinalis, DIGSA); experiment: as above; details: post-emerge, 14 days after application, rating scale 0-100
How it was run: as §1

[19] = system: common ragweed (Ambrosia artemisizfolia L., AMBEL); experiment: as above; details: post-emerge, 14 days after application, rating scale 0-100
How it was run: as §1

[20] = system: lambsquarters (Chenopodium album, CHEAL); experiment: as above; details: post-emerge, 14 days after application, rating scale 0-100
How it was run: as §1

[21] = system: redroot pigweed (Amaranthus retroflexus, AMARE); experiment: as above; details: post-emerge, 14 days after application, rating scale 0-100
How it was run: as §1

[22] = system: upland rice (Oryza sp., var. Tebonnet, RICE); experiment: Pre-emerge test, crop safety; details: rated 14 days after application, 0 = no damage, 100 = complete death
How it was run: as §2

[23] = system: field corn (Zea mays L., var. Dekalb 535, CORN); experiment: Pre-emerge test, crop safety; details: rated 14 days after application, 0 = no damage, 100 = complete death
How it was run: as §2

SMILES: COc1c(Cl)cc(F)c(-n2c(=O)cc(C(F)(F)F)n(C)c2=O)c1N(C(=O)c1ccc(F)c(F)c1)C(=O)c1ccc(F)c(F)c1 [2-49]
- Pre-emerge Herbicidal Activity, phytotoxicity rating (0-100), SORHA ([1]; 63 g ai/ha): 0
- Pre-emerge Herbicidal Activity, phytotoxicity rating (0-100), SORHA ([1]; 250 g ai/ha): 0
- Pre-emerge Herbicidal Activity, phytotoxicity rating (0-100), IPOHE ([2]; 63 g ai/ha): 0
- Pre-emerge Herbicidal Activity, phytotoxicity rating (0-100), IPOHE ([2]; 250 g ai/ha): 90
- Pre-emerge Herbicidal Activity, phytotoxicity rating (0-100), ABUTH ([3]; 63 g ai/ha): 100
- Pre-emerge Herbicidal Activity, phytotoxicity rating (0-100), ABUTH ([3]; 250 g ai/ha): 100
- Pre-emerge Herbicidal Activity, phytotoxicity rating (0-100), CASOB ([4]; 63 g ai/ha): 0
- Pre-emerge Herbicidal Activity, phytotoxicity rating (0-100), CASOB ([4]; 250 g ai/ha): 100
- Pre-emerge Herbicidal Activity, phytotoxicity rating (0-100), ECHCG ([5]; 63 g ai/ha): 0
- Pre-emerge Herbicidal Activity, phytotoxicity rating (0-100), ECHCG ([5]; 250 g ai/ha): 10
- Pre-emerge Herbicidal Activity, phytotoxicity rating (0-100), SETVI ([6]; 63 g ai/ha): 80
- Pre-emerge Herbicidal Activity, phytotoxicity rating (0-100), SETVI ([6]; 250 g ai/ha): 95
- Pre-emerge Herbicidal Activity, phytotoxicity rating (0-100), DIGSA ([7]; 63 g ai/ha): 20
- Pre-emerge Herbicidal Activity, phytotoxicity rating (0-100), DIGSA ([7]; 250 g ai/ha): 100
- Pre-emerge Herbicidal Activity, phytotoxicity rating (0-100), AMBEL ([8]; 63 g ai/ha): 100
- Pre-emerge Herbicidal Activity, phytotoxicity rating (0-100), AMBEL ([8]; 250 g ai/ha): 100
- Pre-emerge Herbicidal Activity, phytotoxicity rating (0-100), CHEAL ([9]; 63 g ai/ha): 100
- Pre-emerge Herbicidal Activity, phytotoxicity rating (0-100), CHEAL ([9]; 250 g ai/ha): 100
- phytotoxicity rating RICE ([10]; 63 g ai/ha): 0
- phytotoxicity rating RICE ([10]; 250 g ai/ha): 10
- phytotoxicity rating CORN ([11]; 63 g ai/ha): 0
- phytotoxicity rating CORN ([11]; 250 g ai/ha): 10
- Pre-emerge Herbicidal Activity, phytotoxicity rating (0-100), AMARE ([12]; 63 g ai/ha): 100
- Pre-emerge Herbicidal Activity, phytotoxicity rating (0-100), AMARE ([12]; 250 g ai/ha): 100
- phytotoxicity rating SORHA ([13]; 63 g ai/ha): 0
- phytotoxicity rating SORHA ([13]; 250 g ai/ha): 0
- phytotoxicity rating IPOHE ([14]; 63 g ai/ha): 70
- phytotoxicity rating IPOHE ([14]; 250 g ai/ha): 70
- phytotoxicity rating ABUTH ([15]; 63 g ai/ha): 90
- phytotoxicity rating ABUTH ([15]; 250 g ai/ha): 100
- phytotoxicity rating CASOB ([16]; 63 g ai/ha): 30
- phytotoxicity rating CASOB ([16]; 250 g ai/ha): 50
- phytotoxicity rating ECHCG ([17]; 63 g ai/ha): 0
- phytotoxicity rating ECHCG ([17]; 250 g ai/ha): 0
- phytotoxicity rating DIGSA ([18]; 63 g ai/ha): 0
- phytotoxicity rating DIGSA ([18]; 250 g ai/ha): 0
- phytotoxicity rating AMBEL ([19]; 63 g ai/ha): 50
- phytotoxicity rating AMBEL ([19]; 250 g ai/ha): 40
- phytotoxicity rating CHEAL ([20]; 63 g ai/ha): 60
- phytotoxicity rating CHEAL ([20]; 250 g ai/ha): 60
- phytotoxicity rating AMARE ([21]; 63 g ai/ha): 20
- phytotoxicity rating AMARE ([21]; 250 g ai/ha): 40
- Pre-emerge phytotoxicity rating (0-100), crop damage, RICE ([22]; 63 g ai/ha): 20
- Pre-emerge phytotoxicity rating (0-100), crop damage, RICE ([22]; 250 g ai/ha): 60
- Pre-emerge phytotoxicity rating (0-100), crop damage, CORN ([23]; 63 g ai/ha): 0
- Pre-emerge phytotoxicity rating (0-100), crop damage, CORN ([23]; 250 g ai/ha): 15

Source: patent US6355799B1, “Substituted benzene compounds, process for their preparation, and herbicidal and defoliant compositions containing them” (ISK Americas Incorporated, priority 1997, dated 2002)
